# US20240325398A1, “COMBINATION THERAPIES” (Infinity Pharmaceuticals, Inc., priority 2014, published 2024)
# What was measured:
# SU-DHL-10-epst = assay: Combination study, ATPLite 72 h, dose matrix (Synergy Score, CI50)
# Method: (§1) Cells are thawed from a liquid nitrogen preserved state. Once cells have been expanded and divide at their expected doubling times, screening begins. Cells are seeded in growth media in either black 1536-well or 384-well tissue culture treated plates. Cells are then equilibrated in assay plates via centrifugation and placed in incubators attached to the Dosing Modules at 37° C. for 24 hours before treatment. […] These Tzero (To) plates are read using ultra-sensitive luminescence on Envision plate readers (Perkin Elmer). Treated assay plates are incubated with compound for 72 hours. After 72 hours, plates are developed for endpoint analysis using ATPLite. All data points are collected via automated processes, quality controlled and analyzed using Zalicus software.
# (§2) The measure of effect in the experiment can be the inhibition of cellular response relative to the untreated level (vehicle alone). […] The inhibition ranges from 0% at the untreated level to 100% when T=0. Inhibition levels are negative for agents that actually increase levels.
# (§3) Growth Inhibition (GI) is used as a measure of cell viability. […] A GI reading of 100% represents complete growth inhibition—T72 compound-treated and T0 vehicle signals are matched. […] A GI reading of 200% represents complete death of all cells in the culture well. Compounds reaching an activity plateau of GI 200% are considered cytotoxic. GI is calculated by applying the following test and equation:
# (§4) Combination analysis data were collected in a 6×6 dose matrix. Synergy is calculated by comparing a combination's response to those of its single compound, against the drug-with-itself dose-additive reference model. Deviations from dose additivity may be assessed visually on an isobologram or numerically with a Combination Index (CI). […] Additive effect is CI=1.0. […] Antagonistic effect is CI>1.0.
# (§5) To measure combination effects in excess of Loewe additivity, a scalar measure to characterize the strength of synergistic interaction termed the Synergy Score is devised. The Synergy Score is calculated as:
# (§6) The fractional inhibition for each component agent and combination point in the matrix is calculated relative to the median of all vehicle-treated control wells. The Synergy Score equation integrates the experimentally-observed activity volume at each point in the matrix in excess of a model surface numerically derived from the activity of the component agents using the Loewe model for additivity. Additional terms in the Synergy Score equation (above) are used to normalize for various dilution factors used for individual agents and to allow for comparison of synergy scores across an entire experiment. The inclusion of positive inhibition gating or an Idata multiplier removes noise near the zero effect level, and biases results for synergistic interactions at that occur at high activity levels.
# (§7) Loewe Volume (Loewe Vol) is used to assess the overall magnitude of the combination interaction in excess of the Loewe additivity model. Loewe Volume is particularly useful when distinguishing synergistic increases in a phenotypic activity (positive Loewe Volume) versus synergistic antagonisms (negative Loewe Volume). […] This model defines additivity as a non-synergistic combination interaction where the combination dose matrix surface should be indistinguishable from either drug crossed with itself. The calculation for Loewe additivity is:
# RL = assay: as above
# SU-DHL-6-epst = assay: Combination study of Compound 1 or CAL-101 and a second therapeutic agent (Synergy Score, CI50); assay type: cell-based
# OCI-Ly7 = assay: Combination study, ATPLite 72 h, dose matrix (Synergy Score, CI50)
# Method: as §1, §2, §3, §4, §5, §6, §7
# Farage = assay: as above; settings: Farage
# Method: as §1
# where T is treated cell count and V is untreated (vehicle) cell count (at 72 hours). I ranges from 0% (when T=V) to 100% (when T=0). […] The measure of effect in the experiment can be the inhibition of cellular response relative to the untreated level (vehicle alone). […] The inhibition ranges from 0% at the untreated level to 100% when T=0. Inhibition levels are negative for agents that actually increase levels. Other effect measures, such as an activity ratio r=T/V may be more appropriate for some assays. When activity ratios (e.g, fold increase over stimulated control) are being used, the effect can be measured using an induction 1=ln(T/V). With this definition, all effect expressions are the same as for inhibition.
# as §3, §4
# The isobologram was drawn by identifying the locus of concentrations that correspond to crossing the indicated inhibition level. This is done by finding the crossing point for each single agent concentration in a dose matrix across the concentrations of the other single agent. Practically, each vertical concentration CY is held fixed while a bisection algorithm is used to identify the horizontal concentration CX in combination with that vertical dose that gives the chosen effect level in the response surface Z(CX,CY). These concentrations are then connected by linear interpolation to generate the isobologram display. For synergistic interactions, the isobologram contour fall below the additivity threshold and approaches the origin, and an antagonistic interaction would lie above the additivity threshold. The error bars represent the uncertainty arising from the individual data points used to generate the isobologram. The uncertainty for each crossing point is estimated from the response errors using bisection to find the concentrations where Z−αZ(CX,CY) and Z+σZ(CX,CY) cross Icut, where αZ is the standard deviation of the residual error on the effect scale.
# as §5
# The fractional inhibition for each component agent and combination point in the matrix is calculated relative to the median of all vehicle-treated control wells.
# KARPAS-422 = assay: as above
# WSU-NHL = assay: as above
# SU-DHL-4-epst = assay: as above
# DOHH-2 = assay: as above
smiles,measurement,setting,value
CC[C@H](Nc1ncnc2[nH]cnc12)c1nc2cccc(F)c2c(=O)n1-c1ccccc1 [CAL-101],CI50 growth inhibition,SU-DHL-10-epst; combination with Dexamethasone,S (S=0.01 to <0.5)
same,CI50 inhibition,SU-DHL-10-epst; combination with Dexamethasone,S (S=0.01 to <0.5)
same,Synergy Score growth inhibition,SU-DHL-10-epst; combination with Dexamethasone,A3 (A3=>3)
same,Synergy Score inhibition,SU-DHL-10-epst; combination with Dexamethasone,A2 (A2=1 to <3)
same,CI50 growth inhibition,SU-DHL-10-epst; combination with LEE011,T (T=0.5 to <0.7)
same,CI50 inhibition,SU-DHL-10-epst; combination with LEE011,T (T=0.5 to <0.7)
same,Synergy Score growth inhibition,SU-DHL-10-epst; combination with LEE011,A3 (A3=>3)
same,Synergy Score inhibition,SU-DHL-10-epst; combination with LEE011,A2 (A2=1 to <3)
same,CI50 growth inhibition,SU-DHL-10-epst; combination with PCI-32765,U (U=0.7 to <1)
same,CI50 inhibition,SU-DHL-10-epst; combination with PCI-32765,U (U=0.7 to <1)
same,Synergy Score growth inhibition,SU-DHL-10-epst; combination with PCI-32765,A2 (A2=1 to <3)
same,Synergy Score inhibition,SU-DHL-10-epst; combination with PCI-32765,A2 (A2=1 to <3)
same,CI50 growth inhibition,SU-DHL-10-epst; combination with PD-0332991,S (S=0.01 to <0.5)
same,CI50 inhibition,SU-DHL-10-epst; combination with PD-0332991,S (S=0.01 to <0.5)
same,Synergy Score growth inhibition,SU-DHL-10-epst; combination with PD-0332991,A3 (A3=>3)
same,Synergy Score inhibition,SU-DHL-10-epst; combination with PD-0332991,A3 (A3=>3)
same,CI50 growth inhibition,RL; combination with Dexamethasone,T (T=0.5 to <0.7)
same,CI50 inhibition,RL; combination with Dexamethasone,T (T=0.5 to <0.7)
same,Synergy Score growth inhibition,RL; combination with Dexamethasone,A3 (A3=>3)
same,Synergy Score inhibition,RL; combination with Dexamethasone,A2 (A2=1 to <3)
same,CI50 growth inhibition,RL; combination with LEE011,T (T=0.5 to <0.7)
same,CI50 inhibition,RL; combination with LEE011,U (U=0.7 to <1)
same,Synergy Score growth inhibition,RL; combination with LEE011,A2 (A2=1 to <3)
same,Synergy Score inhibition,RL; combination with LEE011,A1 (A1=0.0001 to <1)
same,CI50 growth inhibition,RL; combination with PCI-32765,T (T=0.5 to <0.7)
same,CI50 inhibition,RL; combination with PCI-32765,S (S=0.01 to <0.5)
same,Synergy Score growth inhibition,RL; combination with PCI-32765,A2 (A2=1 to <3)
same,Synergy Score inhibition,RL; combination with PCI-32765,A2 (A2=1 to <3)
same,CI50 growth inhibition,RL; combination with PD-0332991,S (S=0.01 to <0.5)
same,CI50 inhibition,RL; combination with PD-0332991,S (S=0.01 to <0.5)
same,Synergy Score growth inhibition,RL; combination with PD-0332991,A2 (A2=1 to <3)
same,Synergy Score inhibition,RL; combination with PD-0332991,A2 (A2=1 to <3)
same,CI50 growth inhibition,SU-DHL-6-epst; combination with Dexamethasone,T (T=0.5 to <0.7)
same,CI50 inhibition,SU-DHL-6-epst; combination with Dexamethasone,S (S=0.01 to <0.5)
same,Synergy Score growth inhibition,SU-DHL-6-epst; combination with Dexamethasone,A2 (A2=1 to <3)
same,Synergy Score inhibition,SU-DHL-6-epst; combination with Dexamethasone,A2 (A2=1 to <3)
same,CI50 growth inhibition,SU-DHL-6-epst; combination with LEE011,S (S=0.01 to <0.5)
same,CI50 inhibition,SU-DHL-6-epst; combination with LEE011,S (S=0.01 to <0.5)
same,Synergy Score growth inhibition,SU-DHL-6-epst; combination with LEE011,A2 (A2=1 to <3)
same,Synergy Score inhibition,SU-DHL-6-epst; combination with LEE011,A2 (A2=1 to <3)
same,CI50 growth inhibition,SU-DHL-6-epst; combination with PCI-32765,T (T=0.5 to <0.7)
same,CI50 inhibition,SU-DHL-6-epst; combination with PCI-32765,T (T=0.5 to <0.7)
same,Synergy Score growth inhibition,SU-DHL-6-epst; combination with PCI-32765,A2 (A2=1 to <3)
same,Synergy Score inhibition,SU-DHL-6-epst; combination with PCI-32765,A2 (A2=1 to <3)
same,CI50 growth inhibition,SU-DHL-6-epst; combination with PD-0332991,T (T=0.5 to <0.7)
same,CI50 inhibition,SU-DHL-6-epst; combination with PD-0332991,T (T=0.5 to <0.7)
same,Synergy Score growth inhibition,SU-DHL-6-epst; combination with PD-0332991,A2 (A2=1 to <3)
same,Synergy Score inhibition,SU-DHL-6-epst; combination with PD-0332991,A2 (A2=1 to <3)
same,CI50 growth inhibition,OCI-Ly7; combination with Dexamethasone,S (S=0.01 to <0.5)
same,CI50 inhibition,OCI-Ly7; combination with Dexamethasone,T (T=0.5 to <0.7)
same,Synergy Score growth inhibition,OCI-Ly7; combination with Dexamethasone,A3 (A3=>3)
same,Synergy Score inhibition,OCI-Ly7; combination with Dexamethasone,A2 (A2=1 to <3)
same,CI50 growth inhibition,OCI-Ly7; combination with LEE011,W (W=≥1)
same,Synergy Score growth inhibition,OCI-Ly7; combination with LEE011,A1 (A1=0.0001 to <1)
same,Synergy Score inhibition,OCI-Ly7; combination with LEE011,A1 (A1=0.0001 to <1)
same,CI50 growth inhibition,OCI-Ly7; combination with PCI-32765,W (W=≥1)
same,Synergy Score growth inhibition,OCI-Ly7; combination with PCI-32765,A1 (A1=0.0001 to <1)
same,Synergy Score inhibition,OCI-Ly7; combination with PCI-32765,A1 (A1=0.0001 to <1)
same,CI50 growth inhibition,OCI-Ly7; combination with PD-0332991,S (S=0.01 to <0.5)
same,CI50 inhibition,OCI-Ly7; combination with PD-0332991,T (T=0.5 to <0.7)
same,Synergy Score growth inhibition,OCI-Ly7; combination with PD-0332991,A2 (A2=1 to <3)
same,Synergy Score inhibition,OCI-Ly7; combination with PD-0332991,A2 (A2=1 to <3)
same,CI50 growth inhibition,Farage; combination with Dexamethasone,U (U=0.7 to <1)
same,CI50 inhibition,Farage; combination with Dexamethasone,S (S=0.01 to <0.5)
same,Synergy Score growth inhibition,Farage; combination with Dexamethasone,A3 (A3=>3)
same,Synergy Score inhibition,Farage; combination with Dexamethasone,A3 (A3=>3)
same,CI50 growth inhibition,Farage; combination with LEE011,W (W=≥1)
same,CI50 inhibition,Farage; combination with LEE011,W (W=≥1)
same,Synergy Score growth inhibition,Farage; combination with LEE011,A1 (A1=0.0001 to <1)
same,Synergy Score inhibition,Farage; combination with LEE011,A1 (A1=0.0001 to <1)
same,CI50 growth inhibition,Farage; combination with PCI-32765,S (S=0.01 to <0.5)
same,CI50 inhibition,Farage; combination with PCI-32765,S (S=0.01 to <0.5)
same,Synergy Score growth inhibition,Farage; combination with PCI-32765,A3 (A3=>3)
same,Synergy Score inhibition,Farage; combination with PCI-32765,A3 (A3=>3)
same,CI50 growth inhibition,Farage; combination with PD-0332991,T (T=0.5 to <0.7)
same,CI50 inhibition,Farage; combination with PD-0332991,T (T=0.5 to <0.7)
same,Synergy Score growth inhibition,Farage; combination with PD-0332991,A2 (A2=1 to <3)
same,Synergy Score inhibition,Farage; combination with PD-0332991,A1 (A1=0.0001 to <1)
same,CI50 growth inhibition,KARPAS-422; combination with Dexamethasone,U (U=0.7 to <1)
same,CI50 inhibition,KARPAS-422; combination with Dexamethasone,T (T=0.5 to <0.7)
same,Synergy Score growth inhibition,KARPAS-422; combination with Dexamethasone,A3 (A3=>3)
same,Synergy Score inhibition,KARPAS-422; combination with Dexamethasone,A2 (A2=1 to <3)
same,CI50 growth inhibition,KARPAS-422; combination with LEE011,T (T=0.5 to <0.7)
same,CI50 inhibition,KARPAS-422; combination with LEE011,T (T=0.5 to <0.7)
same,Synergy Score growth inhibition,KARPAS-422; combination with LEE011,A2 (A2=1 to <3)
same,Synergy Score inhibition,KARPAS-422; combination with LEE011,A2 (A2=1 to <3)
same,CI50 growth inhibition,KARPAS-422; combination with PCI-32765,S (S=0.01 to <0.5)
same,CI50 inhibition,KARPAS-422; combination with PCI-32765,S (S=0.01 to <0.5)
same,Synergy Score growth inhibition,KARPAS-422; combination with PCI-32765,A3 (A3=>3)
same,Synergy Score inhibition,KARPAS-422; combination with PCI-32765,A2 (A2=1 to <3)
same,CI50 growth inhibition,KARPAS-422; combination with PD-0332991,S (S=0.01 to <0.5)
same,CI50 inhibition,KARPAS-422; combination with PD-0332991,S (S=0.01 to <0.5)
same,Synergy Score growth inhibition,KARPAS-422; combination with PD-0332991,A3 (A3=>3)
same,Synergy Score inhibition,KARPAS-422; combination with PD-0332991,A2 (A2=1 to <3)
same,CI50 growth inhibition,WSU-NHL; combination with Dexamethasone,T (T=0.5 to <0.7)
same,CI50 inhibition,WSU-NHL; combination with Dexamethasone,T (T=0.5 to <0.7)
same,Synergy Score growth inhibition,WSU-NHL; combination with Dexamethasone,A3 (A3=>3)
same,Synergy Score inhibition,WSU-NHL; combination with Dexamethasone,A3 (A3=>3)
same,CI50 growth inhibition,WSU-NHL; combination with LEE011,T (T=0.5 to <0.7)
same,CI50 inhibition,WSU-NHL; combination with LEE011,S (S=0.01 to <0.5)
same,Synergy Score growth inhibition,WSU-NHL; combination with LEE011,A2 (A2=1 to <3)
same,Synergy Score inhibition,WSU-NHL; combination with LEE011,A2 (A2=1 to <3)
same,CI50 growth inhibition,WSU-NHL; combination with PCI-32765,S (S=0.01 to <0.5)
same,CI50 inhibition,WSU-NHL; combination with PCI-32765,S (S=0.01 to <0.5)
same,Synergy Score growth inhibition,WSU-NHL; combination with PCI-32765,A3 (A3=>3)
same,Synergy Score inhibition,WSU-NHL; combination with PCI-32765,A3 (A3=>3)
same,CI50 growth inhibition,WSU-NHL; combination with PD-0332991,S (S=0.01 to <0.5)
same,CI50 inhibition,WSU-NHL; combination with PD-0332991,S (S=0.01 to <0.5)
same,Synergy Score growth inhibition,WSU-NHL; combination with PD-0332991,A2 (A2=1 to <3)
same,Synergy Score inhibition,WSU-NHL; combination with PD-0332991,A2 (A2=1 to <3)
same,CI50 growth inhibition,SU-DHL-4-epst; combination with Dexamethasone,S (S=0.01 to <0.5)
same,CI50 inhibition,SU-DHL-4-epst; combination with Dexamethasone,S (S=0.01 to <0.5)
same,Synergy Score growth inhibition,SU-DHL-4-epst; combination with Dexamethasone,A3 (A3=>3)
same,Synergy Score inhibition,SU-DHL-4-epst; combination with Dexamethasone,A3 (A3=>3)
same,CI50 growth inhibition,SU-DHL-4-epst; combination with LEE011,S (S=0.01 to <0.5)
same,CI50 inhibition,SU-DHL-4-epst; combination with LEE011,T (T=0.5 to <0.7)
same,Synergy Score growth inhibition,SU-DHL-4-epst; combination with LEE011,A2 (A2=1 to <3)
same,Synergy Score inhibition,SU-DHL-4-epst; combination with LEE011,A2 (A2=1 to <3)
same,CI50 growth inhibition,SU-DHL-4-epst; combination with PCI-32765,S (S=0.01 to <0.5)
same,CI50 inhibition,SU-DHL-4-epst; combination with PCI-32765,S (S=0.01 to <0.5)
same,Synergy Score growth inhibition,SU-DHL-4-epst; combination with PCI-32765,A3 (A3=>3)
same,Synergy Score inhibition,SU-DHL-4-epst; combination with PCI-32765,A2 (A2=1 to <3)
same,CI50 growth inhibition,SU-DHL-4-epst; combination with PD-0332991,S (S=0.01 to <0.5)
same,CI50 inhibition,SU-DHL-4-epst; combination with PD-0332991,S (S=0.01 to <0.5)
same,Synergy Score growth inhibition,SU-DHL-4-epst; combination with PD-0332991,A3 (A3=>3)
same,Synergy Score inhibition,SU-DHL-4-epst; combination with PD-0332991,A2 (A2=1 to <3)
same,CI50 growth inhibition,DOHH-2; combination with Dexamethasone,T (T=0.5 to <0.7)
same,CI50 inhibition,DOHH-2; combination with Dexamethasone,U (U=0.7 to <1)
same,Synergy Score growth inhibition,DOHH-2; combination with Dexamethasone,A3 (A3=>3)
same,Synergy Score inhibition,DOHH-2; combination with Dexamethasone,A2 (A2=1 to <3)
same,CI50 growth inhibition,DOHH-2; combination with LEE011,T (T=0.5 to <0.7)
same,CI50 inhibition,DOHH-2; combination with LEE011,T (T=0.5 to <0.7)
same,Synergy Score growth inhibition,DOHH-2; combination with LEE011,A3 (A3=>3)
same,Synergy Score inhibition,DOHH-2; combination with LEE011,A2 (A2=1 to <3)
same,CI50 growth inhibition,DOHH-2; combination with PCI-32765,S (S=0.01 to <0.5)
same,CI50 inhibition,DOHH-2; combination with PCI-32765,S (S=0.01 to <0.5)
same,Synergy Score growth inhibition,DOHH-2; combination with PCI-32765,A3 (A3=>3)
same,Synergy Score inhibition,DOHH-2; combination with PCI-32765,A3 (A3=>3)
same,CI50 growth inhibition,DOHH-2; combination with PD-0332991,T (T=0.5 to <0.7)
same,CI50 inhibition,DOHH-2; combination with PD-0332991,T (T=0.5 to <0.7)
same,Synergy Score growth inhibition,DOHH-2; combination with PD-0332991,A3 (A3=>3)
same,Synergy Score inhibition,DOHH-2; combination with PD-0332991,A2 (A2=1 to <3)
